IC50 and EC50 data for 22 compounds are collected here from patent publication US10669272B2, “Substituted naphthyridinone compounds useful as T cell activators” (BRISTOL-MYERS SQUIBB COMPANY, priority 2018, dated 2020).

Molecules are shown by their SMILES. Where two headings read alike, the source gives them in different places.

For one experiment, the target named is T1, human DGKζ (Homo sapiens, UniProt Q13574).
T1 construct: TVMV protease cleavage site (C); Hexa-His (C); made in house; host or cells: Sf9 insect cells (baculovirus, Bac-to-Bac)
Put plainly: DGKζ LIPGLO assay (extruded liposome substrate), in vitro DGK inhibition. Type of experiment: biochemical. The following applies: liposome (LIPGLO) assay; read-out: DGKz LIPGLO IC50.

The next experiment relates to naïve human CD8 T cells. Put plainly: Human CD8 T cells IFN-γ assay.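 Also: Naïve human CD8 T cells stimulated with plate-bound anti-CD3 and soluble anti-CD28, IFN-γ in supernatant quantified by AlphaLISA and converted to pg/mL.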 Type of experiment: cell-based. The following applies: normalized to 3 μM reference compound with anti-CD3 plus anti-CD28 as 100% activation, read-out: HuCD8 INFG Normalized EC50.
The target of another experiment is T2, human DGKα (Homo sapiens, UniProt P23743).
T2 construct: TVMV protease cleavage site (C); Hexa-His (C); made in house; host or cells: Sf9 insect cells (baculovirus, Bac-to-Bac)
Put plainly: DGKα LIPGLO assay (extruded liposome substrate), in vitro DGK inhibition. The following applies: liposome (LIPGLO) assay; read-out: DGKa LIPGLO IC50. Type of experiment: biochemical.

T2 sequence (P23743 with tags, fused parts or gaps): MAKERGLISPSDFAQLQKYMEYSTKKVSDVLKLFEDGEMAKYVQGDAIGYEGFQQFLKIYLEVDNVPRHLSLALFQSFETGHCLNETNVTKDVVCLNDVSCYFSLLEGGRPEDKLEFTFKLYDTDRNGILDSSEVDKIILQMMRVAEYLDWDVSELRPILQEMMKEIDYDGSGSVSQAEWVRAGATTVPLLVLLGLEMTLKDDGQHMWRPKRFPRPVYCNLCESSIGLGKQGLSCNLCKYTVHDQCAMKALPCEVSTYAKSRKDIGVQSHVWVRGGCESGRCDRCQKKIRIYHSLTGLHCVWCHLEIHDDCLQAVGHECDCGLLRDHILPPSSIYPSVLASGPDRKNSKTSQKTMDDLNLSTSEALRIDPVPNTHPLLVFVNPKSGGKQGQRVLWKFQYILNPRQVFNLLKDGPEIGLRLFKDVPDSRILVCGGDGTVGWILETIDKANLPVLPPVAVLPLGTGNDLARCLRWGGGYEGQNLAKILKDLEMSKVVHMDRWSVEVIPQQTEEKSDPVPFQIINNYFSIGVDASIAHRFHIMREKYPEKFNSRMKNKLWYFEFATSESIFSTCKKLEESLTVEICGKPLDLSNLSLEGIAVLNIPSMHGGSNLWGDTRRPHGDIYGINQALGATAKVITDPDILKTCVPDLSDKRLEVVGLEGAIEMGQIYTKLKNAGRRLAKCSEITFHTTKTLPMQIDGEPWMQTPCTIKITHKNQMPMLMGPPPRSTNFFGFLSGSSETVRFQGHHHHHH
T1 sequence (Q13574 with tags, fused parts or gaps isoform Q13574-4): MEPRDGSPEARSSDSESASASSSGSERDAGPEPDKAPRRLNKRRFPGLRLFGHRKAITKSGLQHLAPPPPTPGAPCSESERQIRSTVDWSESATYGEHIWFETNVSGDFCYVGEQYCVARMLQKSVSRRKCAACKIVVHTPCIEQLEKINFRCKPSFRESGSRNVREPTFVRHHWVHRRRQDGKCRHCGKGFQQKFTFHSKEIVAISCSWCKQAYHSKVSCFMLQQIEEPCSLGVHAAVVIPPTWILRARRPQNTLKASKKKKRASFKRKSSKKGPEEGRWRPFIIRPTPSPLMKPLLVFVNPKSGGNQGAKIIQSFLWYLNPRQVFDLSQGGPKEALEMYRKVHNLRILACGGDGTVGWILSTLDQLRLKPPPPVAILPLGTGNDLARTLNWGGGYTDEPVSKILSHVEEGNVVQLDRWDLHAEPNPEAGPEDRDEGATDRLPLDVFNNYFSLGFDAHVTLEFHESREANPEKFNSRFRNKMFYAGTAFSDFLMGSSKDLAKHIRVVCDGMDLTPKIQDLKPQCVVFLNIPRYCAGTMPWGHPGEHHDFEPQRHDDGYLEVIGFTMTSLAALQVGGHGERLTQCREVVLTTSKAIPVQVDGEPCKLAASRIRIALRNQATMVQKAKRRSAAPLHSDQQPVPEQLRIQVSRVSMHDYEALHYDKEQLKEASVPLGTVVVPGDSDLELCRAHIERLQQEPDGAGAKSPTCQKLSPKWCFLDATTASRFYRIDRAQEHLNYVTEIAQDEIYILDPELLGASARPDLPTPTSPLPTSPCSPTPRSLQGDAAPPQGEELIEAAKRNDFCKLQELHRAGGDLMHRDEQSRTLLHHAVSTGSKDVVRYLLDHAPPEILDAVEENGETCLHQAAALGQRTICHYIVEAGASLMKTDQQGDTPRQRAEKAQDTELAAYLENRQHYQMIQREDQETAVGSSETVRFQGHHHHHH
Description for naïve human CD8 T cells: Human CD8 T Cells IFN-γ Assay
Frozen naïve human CD8 T cells were thawed in AIM-V media, incubated for 2 h in 37° C., and counted. The 384-well tissue culture plate was coated overnight at 4° C. with 20 μL anti-human CD3 at 0.05 μg/mL in PBS, which was removed off the plate before 40,000 cells per 40 microliters CD8 T cells with 0.1 μg/mL soluble anti-human CD28 were added to each well. The compounds were transferred using an Echo liquid handler to the cell plate immediately after the cells were plated. After 20 h incubation at 37° C. incubator, 3 microliters per well supernatants transferred into a new 384-well white assay plate for cytokine measurement.
Interferon-γ (IFN-γ) was quantitated using the AlphLISA kit (Cat # AL217) as described by the manufacturer manual (Perkin Elmer). The counts from each well were converted to IFN-γ concentration (pg/mL).

As a reminder, the IC50 is the concentration at which inhibition is half-maximal. What is called EC50 is the concentration needed to bring the measured effect to its halfway point. As for `Cn1c(=O)c(C#N)c(N2CCN(C(c3ccc(F)cc3)c3ccc(F)cc3)C(C(N)=O)C2)c2nc(C#N)ccc21` (single isomer, unassigned) [Example 57, 1-(bis (4-fluorophenyl)methyl)-4-(3,6-dicyano-1-methyl-2-oxo-1,2-dihydro-1,5-naphthyridin-4-yl)piperazine-2-carboxamide], the results for the IC50 at human DGKζ and at human DGKα were 140 µM and 52 µM, respectively. Further, in the experiment on naïve human CD8 T cells (Homo sapiens, T-cell, 20 h), the EC50 amounted to 6 µM.

Take `Cn1c(=O)c(C#N)c(N2CCN(C(c3ccc(F)cc3)c3ccc(F)cc3)C(C(=O)NC3CC3)C2)c2nc(C#N)ccc21` (single isomer, unassigned) [Example 61, 1-(bis(4-fluorophenyl)methyl)-N-cyclopropyl-4-(3,6-dicyano-1-methyl-2-oxo-1,2-dihydro-1,5-naphthyridin-4-yl)piperazine-2-carboxamide]: the IC50 at human DGKζ stood at 170 µM; at human DGKα, 240 µM. The EC50 in the experiment with naïve human CD8 T cells amounted to 10 µM.

With `CC(C)OC(=O)C1CN(c2cc(=O)n(C)c3ccc(C#N)nc23)CCN1C(c1ccc(F)cc1)c1ccc(F)cc1` (single isomer, unassigned) [Example 62, Isopropyl 1-(bis(4-fluorophenyl)methyl)-4-(6-cyano-1-methyl-2-oxo-1,2-dihydro-1,5-naphthyridin-4-yl)piperazine-2-carboxylate], the IC50 on human DGKζ was 15 µM; on human DGKα it was 240 µM. Further, the EC50 with naïve human CD8 T cells turned out to be 1.8 µM.

Regarding `COC(=O)C1CN(c2cc(=O)n(C)c3ccc(C#N)nc23)CCN1C(c1ccc(F)cc1)c1ccc(F)cc1OC` (single isomer, unassigned) [Example 67, Methyl 4-(6-cyano-1-methyl-2-oxo-1,2-dihydro-1,5-naphthyridin-4-yl)-1-((4-fluoro-2-methoxyphenyl)(4-fluorophenyl)methyl)piperazine-2-carboxylate], the IC50 at human DGKζ was determined as 0.92 µM; at human DGKα, 48 µM. In addition, in the experiment with naïve human CD8 T cells, the EC50 amounted to 0.03 µM.

In the case of `COC(=O)C1CN(c2cc(=O)n(C)c3ccc(C#N)nc23)CCN1C(c1ccc(F)cc1)c1ccc(F)cc1OC` (single isomer, unassigned) [Example 68, Methyl 4-(6-cyano-1-methyl-2-oxo-1,2-dihydro-1,5-naphthyridin-4-yl)-1-((4-fluoro-2-methoxyphenyl)(4-fluorophenyl)methyl)piperazine-2-carboxylate], the values for the half-inhibitory concentration (IC50) on human DGKζ and at human DGKα were 0.25 µM and 18 µM, respectively. The EC50 in the experiment on naïve human CD8 T cells is 0.011 µM.

Regarding `COC(=O)C1CN(c2c(F)c(=O)n(C)c3ccc(C#N)nc23)CCN1C(c1ccc(Cl)cc1)c1ccc(Cl)cc1` (single isomer, unassigned) [Example 94, methyl 1-(bis(4-chlorophenyl)methyl)-4-(6-cyano-3-fluoro-1-methyl-2-oxo-1,2-dihydro-1,5-naphthyridin-4-yl)piperazine-2-carboxylate], the IC50 at human DGKζ came out at 4.4 µM; at human DGKα it was 27 µM. Also, the 50% effective concentration (EC50) with naïve human CD8 T cells stood at 0.4 µM.

For the compound `COC(=O)C1CN(c2c(F)c(=O)n(C)c3ccc(C#N)nc23)CCN1C(c1ccc(Cl)cc1)c1ccc(Cl)cc1` (single isomer, unassigned) [Example 95, methyl 1-(bis(4-chlorophenyl)methyl)-4-(6-cyano-3-fluoro-1-methyl-2-oxo-1,2-dihydro-1,5-naphthyridin-4-yl)piperazine-2-carboxylate], the IC50 on human DGKζ was 0.76 µM; on human DGKα it was 2.6 µM. In addition, the EC50 with naïve human CD8 T cells is 0.021 µM.

As for `COc1cc(F)ccc1C(c1ccc(F)cc1)N1C[C@H](C)N(c2c(C#N)c(=O)n(C)c3ccc(C#N)nc23)C[C@H]1C` (single isomer, unassigned) [Example 111], the IC50 at human DGKζ turned out to be 1.6 µM; at human DGKα, 62 µM. The EC50 in the experiment with naïve human CD8 T cells (Homo sapiens, T-cell, 20 h) was determined as 0.073 µM.

As for `COC(=O)C1CN(C(c2ccc(F)cc2)c2ccc(F)cc2)CCN1c1cc(=O)n(C)c2ccc(C#N)nc12` (single isomer, unassigned) [Example 137, Methyl 4-(bis(4-fluorophenyl)methyl)-1-(6-cyano-1-methyl-2-oxo-1,2-dihydro-1,5-naphthyridin-4-yl)piperazine-2-carboxylate], the IC50 at human DGKζ turned out to be 33 µM; on human DGKα it was 240 µM. In addition, the EC50 in the experiment on naïve human CD8 T cells is 1.5 µM.

As for `Cn1c(=O)cc(N2CCN(C(c3ccc(F)cc3)c3ccc(F)cc3)CC2C(=O)NC2CC2)c2nc(C#N)ccc21` (single isomer, unassigned) [Example 140, 4-(bis(4-fluorophenyl)methyl)-1-(6-cyano-1-methyl-2-oxo-1,2-dihydro-1,5-naphthyridin-4-yl)-N-cyclopropylpiperazine-2-carboxamide], the IC50 on human DGKζ is 25 µM; at human DGKα it was 150 µM. Moreover, the EC50 in the experiment with naïve human CD8 T cells worked out at 6.6 µM.

As for `Cn1c(=O)cc(N2CCN(C(c3ccc(F)cc3)c3ccc(F)cc3)CC2C(N)=O)c2nc(C#N)ccc21` (single isomer, unassigned) [Example 142, 4-(bis(4-fluorophenyl)methyl)-1-(6-cyano-1-methyl-2-oxo-1,2-dihydro-1,5-naphthyridin-4-yl)piperazine-2-carboxamide], the IC50 worked out at 65 µM at human DGKζ and 40 µM on human DGKα. Besides, the EC50 with naïve human CD8 T cells (Homo sapiens, T-cell, 20 h) is 10 µM.

Consider `Cn1c(=O)cc(N2CCN(C(c3ccc(F)cc3)c3ccc(F)cc3)CC2C#N)c2nc(C#N)ccc21` (single isomer, unassigned) [Example 144, 8-(4-(bis(4-fluorophenyl)methyl)-2-cyanopiperazin-1-yl)-5-methyl-6-oxo-5,6-dihydro-1,5-naphthyridine-2-carbonitrile], for which the IC50 on human DGKζ was determined as 2.4 µM; at human DGKα, 1.4 µM. Also, the EC50 in the experiment with naïve human CD8 T cells (Homo sapiens, T-cell, 20 h) turned out to be 1.2 µM.

`Cn1c(=O)cc(N2CCN(C(c3ccc(F)cc3)c3ccc(F)cc3)CC2CO)c2nc(C#N)ccc21` (single isomer, unassigned) [Example 147, 8-(4-(bis(4-fluorophenyl)methyl)-2-(hydroxymethyl)piperazin-1-yl)-5-methyl-6-oxo-5,6-dihydro-1,5-naphthyridine-2-carbonitrile]: the IC50 at human DGKζ is 15 µM; at human DGKα it was 48 µM. Moreover, in the experiment on naïve human CD8 T cells, the EC50 was determined as 2 µM.

On to `Cn1c(=O)cc(N2CCN(C(c3ccc(F)cc3)c3ccc(F)cc3)CC2CO)c2nc(C#N)ccc21` (single isomer, unassigned) [Example 148, 8-(4-(bis(4-fluorophenyl)methyl)-2-(hydroxymethyl)piperazin-1-yl)-5-methyl-6-oxo-5,6-dihydro-1,5-naphthyridine-2-carbonitrile], for which the IC50 worked out at 75 µM on human DGKζ and 240 µM on human DGKα. The EC50 in the experiment with naïve human CD8 T cells was determined as 0.42 µM.

For the compound `Cn1c(=O)cc(N2CCN(C(c3ccc(F)cc3)c3ccc(F)cc3)CC2CF)c2nc(C#N)ccc21` (single isomer, unassigned) [Example 150, 8-(4-(bis(4-fluorophenyl)methyl)-2-(fluoromethyl)piperazin-1-yl)-5-methyl-6-oxo-5,6-dihydro-1,5-naphthyridine-2-carbonitrile], the values for the IC50 at human DGKζ and on human DGKα were 29 µM and 240 µM, respectively. The EC50 with naïve human CD8 T cells amounted to 10 µM.

Regarding `Cn1c(=O)cc(N2CCN(C(c3ccc(F)cc3)c3ccc(F)cc3)CC2CF)c2nc(C#N)ccc21` (single isomer, unassigned) [Example 151, 8-(4-(bis(4-fluorophenyl)methyl)-2-(fluoromethyl)piperazin-1-yl)-5-methyl-6-oxo-5,6-dihydro-1,5-naphthyridine-2-carbonitrile], the IC50 at human DGKζ came out at 8.8 µM; on human DGKα it was 3.6 µM. Moreover, the EC50 with naïve human CD8 T cells came to 0.15 µM.

For the compound `COc1ccc2c(n1)c(N1C[C@@H](C)N(C(c3ccccc3)c3ccc(F)cc3)C[C@@H]1C)cc(=O)n2C` (single isomer, unassigned) [Example 238], the IC50 came out at 79 µM on human DGKζ and 17 µM at human DGKα. Besides, the 50% effective concentration (EC50) in the experiment with naïve human CD8 T cells (Homo sapiens, T-cell, 20 h) stood at 5 µM.

Regarding `COc1ccc2c(n1)c(N1C[C@@H](C)N(C(c3ccccc3)c3ccc(F)cc3)C[C@@H]1C)cc(=O)n2C` (single isomer, unassigned) [Example 239], the figures for the half-maximal inhibitory concentration (IC50) at human DGKζ and on human DGKα were 64 µM and 5.9 µM, respectively. For the same compound, the concentration giving a half-maximal response (EC50) in the experiment with naïve human CD8 T cells is 10 µM.

As for `C[C@@H]1CN(C(c2ccc(F)cc2)c2ccc(F)cc2)[C@@H](C)CN1c1c(C#N)c(=O)n(C)c2ccc(C#N)nc12` [Example 6, 8-((2R,5S)-4-(bis(4-fluorophenyl)methyl)-2,5-dimethylpiperazin-1-yl)-5-methyl-6-oxo-5,6-dihydro-1,5-naphthyridine-2,7-dicarbonitrile], the IC50 at human DGKζ was determined as 16 µM; on human DGKα, 25 µM. The EC50 with naïve human CD8 T cells (Homo sapiens, T-cell, 20 h) came out at 0.56 µM.

`Cn1c(=O)c(C#N)c(N2CCN(C(c3ccc(F)cc3)c3ccc(F)cc3)C(CO)C2)c2nc(Br)ccc21` (stereo not drawn) [Example 17, 4-(4-(bis(4-fluorophenyl)methyl)-3-(hydroxymethyl)piperazin-1-yl)-6-bromo-1-methyl-2-oxo-1,2-dihydro-1,5-naphthyridine-3-carbonitrile]: the IC50 came out at 19 µM on human DGKζ and 2.3 µM on human DGKα. Further, the EC50 in the experiment with naïve human CD8 T cells (Homo sapiens, T-cell, 20 h) came to 6.5 µM.

As to `Cn1c(=O)cc(N2CCN(C(c3ccc(F)cc3)c3ccc(F)cc3)C(C(=O)O)C2)c2nc(C#N)ccc21` (stereo not drawn) [Example 55, 1-(bis(4-fluorophenyl)methyl)-4-(6-cyano-1-methyl-2-oxo-1,2-dihydro-1,5-naphthyridin-4-yl)piperazine-2-carboxylic acid], the IC50 on human DGKζ was 180 µM; at human DGKα it was 240 µM. In the experiment with naïve human CD8 T cells (Homo sapiens, T-cell, 20 h), the EC50 came to 6.4 µM.

Regarding `Cn1c(=O)c(C#N)c(N2CCN(C(c3ccc(F)cc3)c3ccc(F)cc3)CC2CO)c2nc(Br)ccc21` (stereo not drawn) [Example 118, 4-(4-(bis(4-fluorophenyl)methyl)-2-(hydroxymethyl)piperazin-1-yl)-6-bromo-1-methyl-2-oxo-1,2-dihydro-1,5-naphthyridine-3-carbonitrile], the IC50 is 63 µM on human DGKζ and 10 µM on human DGKα. In addition, in the experiment with naïve human CD8 T cells (Homo sapiens, T-cell, 20 h), the EC50 came to 0.71 µM.
